Holding throughout (assay type): biochemical
Assay [1] concerns the target T1, Papain (Carica papaya, UniProt P00784).
T1 construct: purchased Sigma
T1 sequence (P00784 134-345): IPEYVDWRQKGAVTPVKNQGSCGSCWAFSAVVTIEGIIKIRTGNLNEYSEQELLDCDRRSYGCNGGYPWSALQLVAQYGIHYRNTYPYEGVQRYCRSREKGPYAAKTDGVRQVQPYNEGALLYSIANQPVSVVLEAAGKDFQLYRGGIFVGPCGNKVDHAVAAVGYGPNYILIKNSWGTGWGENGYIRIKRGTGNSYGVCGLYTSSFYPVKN
As to the kind of experiment: Inhibition of Papain (protocol as for Cathepsine K). Here is the method: (§1) Les produits à tester (10 mM) sont dilués à 1 mM en DMSO et repartis dans des plaques 96 puits polystyrène Nunc à raison de 2 µl par puits. La colonne 12 de la plaque est réservée pour les contrôles et reçoit donc […] de DMSO (sans produits) par puits. Les plaques sont conservées à -80°C et décongelées le jour de l'expérience.
(§2) Les produits sont dilués à 50 µM par addition de 38 µl de tampon réaction : acétate de sodium 100 mM, EDTA 5 mM, DTT 1 mM pH 5,5. L'addition ainsi que tous les pipetages suivant sont réalisés par un pipeteur 96 cônes CybiWell. Après mélange des solutions, chaque produit est transféré dans 2 puits (duplicates) d'une plaque 384 puits noire Greiner à raison de 10 µl par puits. On peut donc tester 2 plaques 96 dans une plaque 384.
(§3) Une solution de substrat à 50 µM, Z-Val-arg-AMC (Calbiochem), est préparée dans le tampon réaction . Le substrat, est ensuite distribué dans tous les puits de la plaque 384 (20 µl par puits).
(§4) Une solution de Cathepsine K à 12,5 ng/ml est préparée dans le tampon réaction et distribuée dans tous les puits de la plaque 384 (20 µl par puits) exceptés les 16 puits servant de contrôles 100 % d'inhibition (colonne 23 et 24, lignes I à P) qui recevront 20 µl de tampon sans enzyme. Les contrôles […] d'inhibition sont réalisés dans les colonnes 23 et 24, lignes A à H qui ne contiennent pas de produits.
(§5) Les plaques sont ensuite incubées 2H à température ambiante, puis lues sur Fluoroskan (Labsystems) : excitation 390 nm; émission 460 nm
(§6) Les concentrations finales de chacun des réactifs sont : Produits 10 µM, Substrat 20 µM, enzyme 5 ng/ml.
(§7) Les % d'inhibition pour chacun des produits sont calculés en utilisant les points à 0 et 100 % d'inhibition de chaque plaque comme références. Les produits présentant une inhibition significative sont ensuite retestés sur une gamme de concentration allant de 50 à 0,5µM pour déterminer une IC50.
Etude de l'inhibition de Papain:
Protocole identique à celui de Cathepsine K exceptés : • Papain (Sigma), solution à 50 ng/ml, concentration finale 20 ng/ml • Incubation 30 min à température ambiante

Assay [2] has as its target T2, Cathepsine K (Homo sapiens, UniProt P43235).
T2 sequence (P43235 115-329): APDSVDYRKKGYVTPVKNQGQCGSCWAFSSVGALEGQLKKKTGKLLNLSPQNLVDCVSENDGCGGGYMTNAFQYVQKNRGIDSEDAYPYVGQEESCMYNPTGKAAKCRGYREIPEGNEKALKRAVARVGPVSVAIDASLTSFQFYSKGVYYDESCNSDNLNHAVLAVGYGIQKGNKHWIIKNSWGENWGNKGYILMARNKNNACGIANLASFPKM
As to the kind of experiment: Inhibition of Cathepsine K (fluorogenic substrate Z-Val-arg-AMC). The following applies: substrate Z-Val-arg-AMC 20 µM, enzyme 5 ng/ml, pH 5.5, 2 h at room temperature; concentration range 50 to 0.5 µM; read-out: IC50 µM Cathepsin K. Here is the method:
Etude de l'inhibition de Cathepsine K :
as §1, §2, §3, §4, §5, §6, §7

Assay [3] has as its target T3, Cathepsine B (Homo sapiens, UniProt P07858).
T3 construct: purchased Calbiochem
As to the kind of experiment: Inhibition of Cathepsine B (fluorogenic substrate Z-arg-arg-AMC). Conditions: substrate Z-arg-arg-AMC 20 µM, enzyme 16 ng/ml, 1 h at room temperature; read-out: IC50 µM Cathepsin B. Here is the method: as §1, §2, §3, §4, §5, §6, §7
Etude de l'inhibition de Cathepsine B: […]

IC50 data for eight compounds are collected here from patent EP1246824B1, “CARBOXAMIDE DIAZEPIN DERIVATIVES, PREPARATION METHOD, USE AS MEDICINES, PHARMACEUTICAL COMPOSITIONS AND USE THEREOF” (Aventis Pharma S.A., priority 1999, dated 2001).

Where two headings read alike, the source gives them in different places.

The term IC50 denotes the concentration that inhibits the measured activity by half.

With `CC(C)(C)Oc1ccc(C[C@H](NC(=O)[C@@H]2CCCN3C(=O)CC[C@H](NC(=O)Nc4ccc(Oc5ccccc5)cc4)C(=O)N23)C(=O)C=[N+]=[N-])cc1` [Exemple 54, 9-[(9S)-[[(4-phenoxyphenyl)amino]carbonyl]amino]-N-[(2S)-4-diazo-1-[4-[(1,1-dimethyl)ethoxy]phenyl]-3-oxo-2-butyl]-6H-(1S)-pyridazino[1,2-a][1,2]diazepine-1-carboxamide], the IC50 in assay [1] came out at 15 µM.
Regarding `C=CCOC(=O)CC[C@H](NC(=O)[C@@H]1CCCN2C(=O)CC[C@H](NC(=O)NC3CCCCC3)C(=O)N12)C(=O)COC(=O)c1c(Cl)cccc1Cl` [Exemple 122, (4S) 6-[(2,6-dichlorobenzoyl)oxy] -4-[[[(1S,9S)-9-[[(cyclohexylamino)carbonyl]amino]-octahydro-6,10-dioxo-6H-pyridazino[1,2-a][1,2]diazepine-1-yl]carbonyl]amino]-5-oxo-Hexanoatede (2-propenyle)], the IC50 in assay [2] is 18 µM; in assay [3], 0.7 µM.
With `C=CCOC(=O)CC[C@H](NC(=O)[C@@H]1CCCN2C(=O)CC[C@H](NC(=O)NCCc3cccs3)C(=O)N12)C(=O)CSc1nnnn1-c1ccccc1` [Exemple 138, (4S) 6-[(1-phenyl-1H-tetrazol-5-yl)thio]-4-[[[(1S,9S)-9-[[[[2-(thien-2-yl)-ethyl]amino]carbonyl]amino]-octahydro-6,10-dioxo-6H-pyridazino[1,2-a][1,2]diazepine-1-yl]carbonyl]amino]-5-oxo-Hexanoatede (2-propenyle)], the IC50 in assay [1] (enzyme 20 ng/ml, 30 min at room temperature, read-out: IC50 µM Papain) is 8 µM.
Regarding `C=CCOC(=O)CC[C@H](NC(=O)[C@@H]1CCCN2C(=O)CC[C@H](NC(=O)NCCc3cccs3)C(=O)N12)C(=O)COC(=O)c1c(Cl)cccc1Cl` [Exemple 141, (4S) 6-[(2,6-dichlorobenzoyl)oxy]-4-[[[(1S,9S)-9-[[[[2-(thien-2-yl)-ethyl]amino]carbonyl]amino]-octahydro-6,10-dioxo-6H-pyridazino[1,2-a][1,2]diazepine-1-yl]carbonyl]amino]-5-oxo-Hexanoatede (2-propenyle)], the half-maximal inhibitory concentration (IC50) in assay [2] came to 9 µM; in assay [3], 0.7 µM.
Take `C=CCOC(=O)CC[C@H](NC(=O)[C@@H]1CCCN2C(=O)CC[C@H](NS(C)(=O)=O)C(=O)N12)C(=O)COC(=O)c1c(Cl)cccc1Cl` [Exemple 150, (4S) 6-[(2,6-dichlorobenzoyl)oxy]-4-[[[(1S,9S)-9-[(methylsulfonyl)amino]-octahydro-6,10-dioxo-6H-pyridazino[1,2-a] [1,2]diazepine-1-yl]carbonyl]amino]-5-oxo-Hexanoatede (2-propenyle)]: the IC50 in assay [2] is 6 µM; in assay [3], 0.6 µM.
With `COC(=O)CCCC(=O)OCC(=O)[C@H](Cc1ccccc1)NC(=O)[C@@H]1CCCN2C(=O)CC[C@H](NC(=O)Nc3ccc(Oc4ccccc4)cc3)C(=O)N12` [Exemple 217], the IC50 in assay [1] (read-out: IC50 µM Papain, enzyme 20 ng/ml, 30 min at room temperature) was 7 µM.
For the compound `CC(C)C[C@H](NC(=O)[C@@H]1CCCN2C(=O)CC[C@H](NS(=O)(=O)c3ccc(C(F)(F)F)cc3)C(=O)N12)C(=O)C=[N+]=[N-]` [Exemple 347, 9-[(9S)-[[4-(trifluoromethyl)phenyl]sulfonyl]amino]-N-((3S)-1-diazo-5-methyl-2-oxo-3-hexyl)-octahydro-6,10-dioxo-6H-(1S)-pyridazino[1,2-a][1,2]diazepine-1-carboxamide], the IC50 in assay [2] was determined as 12 µM.
Consider “(4S) 6-diazo-4-[[[(1S,9S)-9-[[[[2-(p-2-yl)-ethyl]amino]carbonyl]amino]-octahydro-6,10-dioxo-6H-pyridazino[1,2-a][1,2]diazepine-1-yl]carbonyl]amino]-5-oxo-Hexanoate de (2-propenyle) [Exemple 44]”, for which the IC50 in assay [2] is 2 µM.
